How the values were obtained:
TRPV1 [1] = target: T1, TRPV1 (Homo sapiens, UniProt Q8NER1); format: cell-based
TRPV1 [2] = target: T1, TRPV1; assay: whole-cell patch clamp, agonist current at […]; format: cell-based

T1 sequence (Q8NER1 whole entry): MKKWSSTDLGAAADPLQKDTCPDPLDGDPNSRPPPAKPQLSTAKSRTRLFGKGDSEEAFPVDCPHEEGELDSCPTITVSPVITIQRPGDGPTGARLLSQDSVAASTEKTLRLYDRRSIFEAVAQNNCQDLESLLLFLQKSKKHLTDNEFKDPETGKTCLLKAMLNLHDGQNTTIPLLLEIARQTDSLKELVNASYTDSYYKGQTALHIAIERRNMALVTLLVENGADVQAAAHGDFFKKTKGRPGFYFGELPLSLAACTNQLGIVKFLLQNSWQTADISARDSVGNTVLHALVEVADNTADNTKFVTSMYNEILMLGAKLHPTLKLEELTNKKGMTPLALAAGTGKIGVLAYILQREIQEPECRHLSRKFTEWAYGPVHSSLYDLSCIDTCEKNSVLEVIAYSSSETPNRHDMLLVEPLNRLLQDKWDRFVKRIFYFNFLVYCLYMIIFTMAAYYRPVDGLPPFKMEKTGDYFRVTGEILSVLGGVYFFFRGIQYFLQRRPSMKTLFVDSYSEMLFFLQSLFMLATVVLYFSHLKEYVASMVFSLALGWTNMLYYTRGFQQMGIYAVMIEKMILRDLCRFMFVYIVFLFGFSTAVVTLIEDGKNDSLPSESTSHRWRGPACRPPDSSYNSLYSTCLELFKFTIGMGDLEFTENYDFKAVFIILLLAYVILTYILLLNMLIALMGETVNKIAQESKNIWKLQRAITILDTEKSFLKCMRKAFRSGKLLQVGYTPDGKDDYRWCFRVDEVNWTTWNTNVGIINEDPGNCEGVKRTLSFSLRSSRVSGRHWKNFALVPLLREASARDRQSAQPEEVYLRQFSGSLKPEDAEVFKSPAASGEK

| IC50 (TRPV1 [1]) | SMILES | whole-cell patch clamp, agonist current at 1 μM (TRPV1 [2]) |
| --- | --- | --- |
| 34.3 ± 0.2 nM | C=C1CC[C@H](O)C/C1=C/C=C1\CCC[C@]2(C)[C@@H]([C@H](C)CCCC(C)(C)O)CC[C@@H]12 [25OHD, 25-Hydroxyvitamin D] | – |
| – | CCCCCCCC/C=C\CCCCCCCC(=O)NCCc1ccc(O)c(O)c1 [OLDA, N-oleoyldopamine] | OLDA elicited whole‐cell currents that displayed similar kinetics to that observed with capsaicin |

From article PMC7589233 (The Journal of Physiology, 2020)
